This is an account of results in patent publication US10751423B2 (Massachusetts Institute of Technology, priority 2016, dated 2020).

For data set [1] the following is noted: read-out: in vitro IC50; cited from earlier work.
In a further data set the test system is BCL-2 siRNA. In words: siRNA binding with various platinum species by MALDI-TOF-MS. The note with it: 10-fold excess of platinum species. How it is done: A single-stranded siRNA (UCAGGUACUCAGUCAUCCACATT) (SEQ ID NO: 3) was mixed with OxaPt(II) at a molar ratio of 1:10 in RNAase free water (RNA final concentration: 50 μM; Pt final concentration: 500 μM; total volume: 100 μL). The reaction mixture was placed in a 37° C. incubator and 10 μL of sample were removed at various time points to obtain MALDI-TOF-MS spectra (positive model). Analogous methods were employed to obtain spectra of the reaction products of siRNA with OxaPt(IV), CisPt(II) and CisPt(IV).
MALDI/TOF MS was used to ascertain the kinetics of platinum-RNA adduct formation using BCL-2 siRNA that was incubated with a 10-fold excess of various platinum(II) or platinum(IV) species. […] AAS measurements of siRNA that had been isolated after co-incubation with various platinum species was conducted to determine the concentration of Pt-siRNA adducts formed over time.

The next data set has as its system 5′-GMP. In words: 5′-GMP binding with various platinum species by 1HNMR. The note with it: 10 mM 5′-GMP, 5 mM Pt, 37° C. The method, then:
(10 mM) 5′-GMP and (5 mM) OxaPt(II) were mixed in 700 μL of D2O/H2O (v/v=1:9), transferred to an NMR tube and placed in a 37° C. water bath for various time periods prior to ^1HNMR measurement. […] The binding kinetics of 5′-GMP to each platinum species were determined by measuring the relative amounts of free and Pt-bound 5′-GMP at each time point, integrating the ratio of the ^1HNMR peaks at 8.5 ppm to 8.09 ppm.
OxaPt(II) and CisPt(II) are known to bind to guanine (G) and adenine (A) bases in both DNA and RNA. […] Formation of Pt-(5′-GMP)2 adducts were subsequently monitored by ESI-MS (FIG. 4A and FIG. 4B) and by MALDI/TOF MS (data not shown). Differences in the kinetics of adduct formation by various platinum(II) and platinum(IV) species were subsequently studied by ^1H NMR spectroscopy under similar conditions.

Data set [2] is described as follows: photostability under continuous laser irradiation. The class given is physicochemical. An excerpt:
FIG. 31D is a plot showing measurements of the photostability of various emissive components of core-shell nanoparticles under continuous irradiation. Note, the same excitation energies were utilized as in FIG. 31C; and, emission was detected using various excitation and emission filters. The photostability of DiR in THF (DiR in THF; black) was included for comparative purposes.
In addition to the emission of these extrinsic reporters, bioluminescence due to the luciferaseluciferin reaction and RFP fluorescence upon 535 nm excitation are also included in FIG. 31C, generating a spectral comparison of all reporters that were subsequently utilized for in vivo and ex vivo imaging (vide infra). Prior to embarking on comparisons of in vivo imaging with different reporters, we examined the photostability of each of the emissive components within the core-shell nanoparticles.

Non-standard residues stand in square brackets, D forms with d. Residues, ends and D or L forms follow the SMILES beside them. *: point of attachment. Dolaproine = CO[C@@H]([C@@H]1CCCN1)[C@@H](C)C(=O)O; Dil = CC[C@H](C)[C@H](NC)[C@@H](CC(=O)O)OC; X1 = C[C@@H](N*)[C@@H](O)c1ccccc1; NMeV = CN[C@H](C(=O)O)C(C)C Bounds are passed on as bounds.

As usually defined, the IC50 is the concentration needed to halve the response being measured. For the molecule `CC[C@H](C)[C@@H]([C@@H](CC(=O)N1CCC[C@H]1[C@H](OC)[C@@H](C)C(=O)N[C@H](C)[C@@H](O)c1ccccc1)OC)N(C)C(=O)[C@@H](NC(=O)[C@@H](NC)C(C)C)C(C)C` [MMAE, monomethyl auristatin E] (H-[NMeV]V[Dil][Dolaproine]-X1), the IC50 in data set [1] was 0.2 to 0.6 nM.
On to `O=C1[O][Pt]2([NH][C@@H]3CCCC[C@H]3[NH]2)[O]C1=O` [OxaPt(II), Oxaliplatin], for which, in the data set on BCL-2 siRNA, the “time at which Pt-siRNA adducts could be detected” value was 1 h. The “DACHPt(5′-GMP)2 adducts as share of the 5′-GMP pool” value is “approximately 10%” in the data set on 5′-GMP (30 m incubation) and above 40% in the data set with 5′-GMP (6 h incubation).
As to `N.N.[Cl][Pt][Cl]` [CisPt(II), cisplatin], in the data set with BCL-2 siRNA, the “time at which Pt-siRNA adducts could be detected” value is on record as at most 30 m.
On to `CCCCCCCCCCCCCCCCCCN1C(=CC=CC=CC=CC2=[N+](CCCCCCCCCCCCCCCCCC)c3ccccc3C2(C)C)C(C)(C)c2ccccc21.[I-]` [DiR, 1,1′-dioctadecyl-3,3,3′,3′-tetramethylindotricarbocyanine iodide], for which the “initial emission intensity maintained” value in data set [2] (DiR incorporated within the PCL shell of the nanoparticles, 1 h) is on record as 88%. In addition, the fluorescence decrease result in data set [2] (free DiR in THF, 1 h of continuous excitation) was “over 30%”.
